Experimental findings from patent US5914339A, “Substituted 1,3-benzodioxoles” (American Home Products Corporation, priority 1997, dated 1999) are described below.

Where a name gives a salt, the structure may show the parent alone.

The target in the first assay is human β2 adrenergic receptor (Homo sapiens, UniProt P07550). Put plainly: cell-based. As to conditions: 10 min; compounds tested at 10 nM, isoproterenol at 10 μM; CHO cells, 10 min at 37° C; read-out: β2: % of isoproterenol activity (increase in cAMP). The procedure: The activity of the test compounds on human β-adrenergic receptors was determined with Chinese hamster ovary (CHO) cells transfected with human β2, or β1 adrenergic receptors. Agonist activity is indicated by increased cAMP levels in the CHO cells. Selectivity of the test compounds for the β3 receptor was assessed by comparison with results in β2 and β1 adrenergic receptor transfected cells.
Chain of human β2 adrenergic receptor (P07550 whole entry): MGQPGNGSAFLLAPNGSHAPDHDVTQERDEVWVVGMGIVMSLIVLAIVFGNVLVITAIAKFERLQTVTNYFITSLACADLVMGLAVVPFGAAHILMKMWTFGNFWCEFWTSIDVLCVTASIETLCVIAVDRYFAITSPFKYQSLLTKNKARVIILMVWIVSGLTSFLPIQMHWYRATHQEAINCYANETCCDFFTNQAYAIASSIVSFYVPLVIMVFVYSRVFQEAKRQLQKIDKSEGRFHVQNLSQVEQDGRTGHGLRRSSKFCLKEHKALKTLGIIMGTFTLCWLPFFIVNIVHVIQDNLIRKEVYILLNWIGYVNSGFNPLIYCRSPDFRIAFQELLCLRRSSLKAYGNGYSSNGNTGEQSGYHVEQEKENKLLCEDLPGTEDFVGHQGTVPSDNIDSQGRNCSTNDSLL
1). Chinese hamster ovary (CHO) cells transfected with human β2, or β1 adrenergic receptors were used in the assay.
2). Cells were grown to confluent conditions in 24 well plates.
3). Drugs were dissolved in DMSO at a concentration of 10 μM.
4). Cells were incubated with drug at 10 nM concentration for 10 min at 37° C.
5). Cell cAMP concentrations were assayed using a scintillation proximity assay kit from Amersham Corp., Chicago, Ill.
6). Activities for the test compounds are expressed as a percentage of the isoproterenol response.
Production of the CHO cells transfected with human β2, or β1 adrenergic receptors, and compound test procedures utilizing the CHO cells, are described by Emorine et al. in their article "Molecular Characterization of the Human Beta3 -Adrenergic Receptor", Science 1989, 245(8), 1118-1121 and by Muzzin et al. in the article "An Adipose Tissue-Specific Beta3 -Adrenergic Receptor", J. Biol. Chem.1991, 266, 24053-24058.
^a Human β receptors expressed in Chinese hamster ovary cells,
compounds tested at 10 nM, results expressed as % of isoproterenol
activity (increase in cAMP) at 10 μM. EC50 (μM) values
determined for selected compounds.
As to `CCCCCCCCCCCCOC(=O)C1(C(=O)OCCCCCCCCCCCC)Oc2ccc(CC(C)NCC(O)c3cccc(Cl)c3)cc2O1` (stereo not shown) [Example 20, 5-{2-[2-(3-Chloro-phenyl)-2-hydroxy-ethylamino]-propyl}-benzo[1,3]dioxole-2,2-dicarboxylic acid didodecyl ester], the activation at 0.01 µM came out at 0%. Turning to `CC(Cc1ccc2c(c1)OC(C(=O)OC(C)OC(=O)C(C)(C)C)(C(=O)OC(C)OC(=O)C(C)(C)C)O2)NCC(O)c1cccc(Cl)c1` (stereo not shown) [Example 52], the activation at 0.01 µM stood at 2%. `CC(Cc1ccc2c(c1)OC(C(=O)OCCCl)(C(=O)OCCCl)O2)NCC(O)c1cccc(Cl)c1` (stereo not shown) [Example 73, 5-{2-[2-(3-Chloro-phenyl)-2-hydroxy-ethylamino]-propyl}-benzo[1,3]dioxole-2,2-dicarboxylic acid bis 2-(Chloro)ethyl ester]: the activation at 0.01 µM amounted to 0%. The same measure, in the same setting: the value for `CC(Cc1ccc2c(c1)OC(C(=O)OCCOC(C)(C)C)(C(=O)OCCOC(C)(C)C)O2)NCC(O)c1cccc(Cl)c1` (stereo not shown) [Example 6, 5-{2-[2-(3-Chloro-phenyl)-2-hydroxy-ethylamino]-propyl}-benzo[1,3]dioxole-2,2-dicarboxylic acid bis-(2-tert-butoxy-ethyl) ester] was 3%; that for `CC(Cc1ccc2c(c1)OC(C(=O)OC(C)OC(=O)CC(C)(C)C)(C(=O)OC(C)OC(=O)CC(C)(C)C)O2)NCC(O)c1cccc(Cl)c1` (stereo not shown) [Example 54] was 7%; that for `C[C@H](Cc1ccc2c(c1)OC(C(=O)OC/C=C\COCc1ccccc1)(C(=O)OC/C=C\COCc1ccccc1)O2)NC[C@H](O)c1cccc(Cl)c1` [Example 101, 5-{(2R)-2-[(2R)-2-(3-Chloro-phenyl)-2-hydroxy-ethylamino]-propyl}-benzo[1,3]dioxole-2,2-dicarboxylic acid bis-(4-benzyloxy-but-2-enyl)ester] was 3%. For `CC(Cc1ccc2c(c1)OC(C(=O)OCCC1CCCCC1)(C(=O)OCCC1CCCCC1)O2)NCC(O)c1cccc(Cl)c1` (stereo not shown) [Example 36, 5-{2-[2-(3-Chloro-phenyl)-2-hydroxy-ethylamino]-propyl}-benzo[1,3]dioxole-2,2-dicarboxylic acid bis-(2-cyclohexyl-ethyl) ester], the activation at 0.01 µM amounted to 2%. With `CCC(=O)OC(C)OC(=O)C1(C(=O)OC(C)OC(=O)CC)Oc2ccc(CC(C)NCC(O)c3cccc(Cl)c3)cc2O1` (stereo not shown) [Example 51, 5-{2-[2-(3-Chloro-phenyl)-2-hydroxyethylamino]propyl}benzo[1,3] dioxole-2,2-dicarboxylic acid bis-(1-propionyloxy-ethyl) ester], the activation at 0.01 µM was 0%.

As to `CC(=O)OCOC(=O)C1(C(=O)OCOC(C)=O)Oc2ccc(CC(C)NCC(O)c3cccc(Cl)c3)cc2O1` (stereo not shown) [Example 42, 5-{2-[2-(3-Chloro-phenyl)-2-hydroxyethylamino]propyl}benzo[1,3] dioxole-2,2-dicarboxylic acid bis-acetoxymethyl ester], the activation at 0.01 µM amounted to 0%. On to `CC(Cc1ccc2c(c1)OC(C(=O)OCOC(=O)C(C)(C)C)(C(=O)OCOC(=O)C(C)(C)C)O2)NCC(O)c1cccc(Cl)c1` (stereo not shown) [Example 49, 5-{2-[2-(3-Chloro-phenyl)-2-hydroxyethylamino]propyl}benzo[1,3] dioxole-2,2-dicarboxylic acid bis-(2,2-dimethyl-propionyloxymethyl) ester], for which the activation at 0.01 µM was 4%. As for `C[C@H](Cc1ccc2c(c1)OC(C(=O)OC1CCCCCCC1)(C(=O)OC1CCCCCCC1)O2)NC[C@H](O)c1cccc(Cl)c1` [Example 100, 5-{(2R)-2-[(2R)-2-(3-Chloro-phenyl)-2-hydroxy-ethylamino]-propyl}-benzo[1,3]dioxole-2,2-dicarboxylic acid dicyclooctyl ester], the activation at 0.01 µM was determined as 2%. Still for that read-out and setting: the value for `CCCCCCCCCOC(=O)C1(C(=O)OCCCCCCCCC)Oc2ccc(CC(C)NCC(O)c3cccc(Cl)c3)cc2O1` (stereo not shown) [Example 18, 5-{2-[2-(3-Chloro-phenyl)-2-hydroxy-ethylamino]-propyl}-benzo[1,3]dioxole-2,2-dicarboxylic acid dinonyl ester] was 6%; that for `CCCCCCC(=O)OCOC(=O)C1(C(=O)OCOC(=O)CCCCCC)Oc2ccc(CC(C)NCC(O)c3cccc(Cl)c3)cc2O1` (stereo not shown) [Example 46, 5-{2-[2-(3-Chloro-phenyl)-2-hydroxyethylamino]propyl}benzo[1,3] dioxole-2,2-dicarboxylic acid bis-heptanoyloxymethyl ester] was 16%; that for `CCCCCCCCCCOC(=O)C1(C(=O)OCCCCCCCCCC)Oc2ccc(CC(C)NCC(O)c3cccc(Cl)c3)cc2O1` (stereo not shown) [Example 19, 5-{2-[2-(3-Chloro-phenyl)-2-hydroxy-ethylamino]-propyl}-benzo[1,3]dioxole-2,2-dicarboxylic acid bis-decyl ester] was 2%. For the compound `C=CCOC(=O)C1(C(=O)OCC=C)Oc2ccc(C[C@@H](C)NC[C@H](O)c3cccc(Cl)c3)cc2O1` [Example 98, 5-{(2R)-2-[(2R)-2-(3-Chloro-phenyl)-2-hydroxy-ethylamino]-propyl}-benzo[1,3]dioxole-2,2-dicarboxylic acid diallyl ester], the activation at 0.01 µM worked out at 7%. On the same count and under the same terms, the value for `C[C@H](Cc1ccc2c(c1)OC(C(=O)OCC13CC4CC(CC(C4)C1)C3)(C(=O)OCC13CC4CC(CC(C4)C1)C3)O2)NC[C@H](O)c1cccc(Cl)c1` (stereo partly drawn) [Example 77, 5-{(2R)-2-[(2R)-2-(3-Chloro-phenyl)-2-hydroxy-ethylamino]-propyl}-benzo[1,3]dioxole-2,2-dicarboxylic acid bis-adamantan-1-ylmethyl ester] was 5%. On to `C[C@H](Cc1ccc2c(c1)OC(C(=O)OCCCOCc1ccccc1)(C(=O)OCCCOCc1ccccc1)O2)NC[C@H](O)c1cccc(Cl)c1` [Example 104, 5-{(2R)-2-[(2R)-2-(3-Chloro-phenyl)-2-hydroxy-ethylamino]-propyl}benzo[1,3]dioxole-2,2-dicarboxylic acid bis-(3-benzyloxy-propyl)ester], for which the activation at 0.01 µM was found to be 2%.

Consider `CC(Cc1ccc2c(c1)OC(C(=O)OCC1CCCCC1)(C(=O)OCC1CCCCC1)O2)NCC(O)c1cccc(Cl)c1` (stereo not shown) [Example 34, 5-{2-[2-(3-Chloro-phenyl)-2-hydroxy-ethylamino]-propyl}-benzo[1,3]dioxole-2,2-dicarboxylic acid bis-cyclohexylmethyl ester], for which the activation at 0.01 µM turned out to be 2%. With `CC(Cc1ccc2c(c1)OC(C(=O)OCOC(=O)C(C)C)(C(=O)OCOC(=O)C(C)C)O2)NCC(O)c1cccc(Cl)c1` (stereo not shown) [Example 45, 5-{2-[2-(3-Chloro-phenyl)-2-hydroxyethylamino]propyl}benzo[1,3] dioxole-2,2-dicarboxylic acid bis-isobutyryloxymethyl ester], the activation at 0.01 µM was 1%. Take `C[C@H](Cc1ccc2c(c1)OC(C(=O)OCC1CCCCO1)(C(=O)OCC1CCCCO1)O2)NC[C@H](O)c1cccc(Cl)c1` (stereo partly drawn) [Example 90, 5-{(2R)-2-[(2R)-2-(3-Chloro-phenyl)-2-hydroxy-ethylamino]-propyl}-benzo[1,3]dioxole-2,2-dicarboxylic aicd bis-(tetrahydro-pyran-2-ylmethyl) ester]: the activation at 0.01 µM was determined as 7%.

Staying with this assay, now noted: CHO, 10 min, read-out: β2: % of isoproterenol activity (increase in cAMP).
As for `CC(Cc1ccc2c(c1)OC(C(=O)OC[Si](C)(C)C)(C(=O)OC[Si](C)(C)C)O2)NCC(O)c1cccc(Cl)c1` (stereo not shown) [Example 30, 5-{2-[2-(3-Chloro-phenyl)-2-hydroxy-ethylamino]-propyl}-benzo[1,3]dioxole-2,2-dicarboxylic acid bis-trimethylsilanylmethyl ester], the activation at 0.01 µM came to 0%. With `CC(Cc1ccc2c(c1)OC(C(=O)OC1CCCCC1)(C(=O)OC1CCCCC1)O2)NCC(O)c1cccc(Cl)c1` (stereo not shown) [Example 10, 5-{2-[2-(3-Chloro-phenyl)-2-hydroxy-ethylamino]-propyl}-benzo[1,3]dioxole-2,2-dicarboxylic acid bis-(cyclohexyl) ester hydrochloride salt], the activation at 0.01 µM was found to be 0%.

Consider `CC(Cc1ccc2c(c1)OC(C(=O)OCc1ccccc1)(C(=O)OCc1ccccc1)O2)NCC(O)c1cccc(Cl)c1` (stereo not shown) [Example 9, 5-{2-[2-(3-Chloro-phenyl)-2-hydroxy-ethylamino]-propyl}-benzo[1,3]dioxole-2,2-dicarboxylic acid bis-(benzyl) ester hydrochloride salt], for which the activation at 0.01 µM was 16%.

Consider `CC(Cc1ccc2c(c1)OC(C(=O)OCCOc1ccccc1)(C(=O)OCCOc1ccccc1)O2)NCC(O)c1cccc(Cl)c1` (stereo not shown) [Example 4, 5-{2-[2-(3-Chloro-phenyl)-2-hydroxy-ethylamino]-propyl}-benzo[1,3]dioxole-2,2-dicarboxylic acid bis-(2-phenoxy-ethyl) ester hydrochloride salt], for which the activation at 0.01 µM stood at 1%.

For `CCCCOCCOC(=O)C1(C(=O)OCCOCCCC)Oc2ccc(CC(C)NCC(O)c3cccc(Cl)c3)cc2O1` (stereo not shown) [Example 3, 5-{2-[2-(3-Chloro-phenyl)-2-hydroxy-ethylamino]-propyl}-benzo[1,3]dioxole-2,2-dicarboxylic acid bis-(2-butoxy-ethyl) ester hydrochloride salt], the activation at 0.01 µM turned out to be 0%.
